According to US6015818A, “Quinoline derivatives as bradykinin agonists” (Fujisawa Pharmaceutical Co., Ltd., priority 1996, dated 2000):

Tests used:
Bradykinin receptor = target: T1, Bradykinin receptor (Cavia porcellus, UniProt O70526); test: 3H-Bradykinin receptor binding (crude guinea pig ileum membrane); design: species or system guinea pigs; conditions: 3H-Bradykinin 0.06 nM, room temperature, 60 minutes, read-out: Inhibition of ^3 H-Bradykinin binding: IC50
T1 construct: The ileum was removed and homogenized in buffer; from tissue; host or cells: guinea pig (male Hartley strain) ileum, crude membrane suspension
T1 sequence (O70526 1-372): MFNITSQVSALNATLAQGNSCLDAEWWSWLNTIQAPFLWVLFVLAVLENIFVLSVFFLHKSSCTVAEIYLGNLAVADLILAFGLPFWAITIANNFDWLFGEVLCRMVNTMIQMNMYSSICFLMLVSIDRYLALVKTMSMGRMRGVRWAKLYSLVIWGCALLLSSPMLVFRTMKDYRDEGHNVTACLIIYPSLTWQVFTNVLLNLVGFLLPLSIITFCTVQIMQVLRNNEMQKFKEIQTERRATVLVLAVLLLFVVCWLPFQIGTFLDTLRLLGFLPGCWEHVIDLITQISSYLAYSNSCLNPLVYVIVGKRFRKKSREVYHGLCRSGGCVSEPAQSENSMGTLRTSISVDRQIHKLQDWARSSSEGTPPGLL
Description: (I) ^3 H-Bradykinin receptor binding
(a) Crude ileum membrane preparation
Male Hartly strain guinea pigs were sacrificed by decapitation. The ileum was removed and homogenized in buffer (50 mM 2-[[tris(hydroxymethyl)methyl]amino]-1-ethanesulfonic acid (TES), 1 mM 1,10-phenanthroline pH 6.8). The homogenate was centrifuged (1000×g,20 minutes) to remove tissue clumps and the supernatant was centrifuges (100,000×g, 60 minutes) to yield a pellet. The pellet was resuspended in buffer (50 mM TES, 1 mM 1,10-phenanthroline, 140 mg/l bacitracin, 1 mM dithiothreiol, 0.1% bovine serum albumin pH 6.8) and homogenized with a glass-teflon homogenizer to yield suspension which was referred to as crude membrane suspension. The obtained membrane suspension was stored at -80° C. until use.
(b) ^3 H-Bradykinin binding to the membrane
The frozen crude membrane suspension was thawed. In binding assays, ^3 H-Bradykinin (0.06 nM) and drug were incubated with 50 μl of the membrane suspension at room temperature for 60 minutes in a final volume of 250 μ1. Separation of receptor-bound from free ^3 H-Bradykinin is achieved by immediate filtration under vacuum and washed three times with 5 ml of ice-cold buffer (50 mM Tris-HCl pH 7.5). Non-specific binding was defined as binding in the presence of 0.1 μM Bradykinin. The radioactivity retained on rinsed filters was determined by a liquid-scintillation counter.

WI-38 PGE2 production = test: Prostaglandin E2 (PGE2) production in human fibroblasts (WI-38); assay type: cell-based; conditions: WI-38, 0.5 h, concentration: 1 × 10^-6 M, 30 minutes at 37° C., PGE2 by EIA, read-out: WI-38 PGE2 production increase ratio
Description: (II) Prostaglandin E2 (PGE2) production in human fibroblasts
The assay of PGE2 production was modified from the procedure described in The Journal of Biological Chemistry, 257, 8630-8633 (1982).
Human fibroblasts (WI-38, ATCC CCL75) were grown in Eagle's Minimum Essential Medium [E-MEM: ICN Biomedical Inc., Cat. No. 10-101-24 (47.6 g) with sodium bicarbonate (11.0 g), penicillin G potassium salt (0.5 g), streptomycin sulfate (0.5 g) in water (5000 ml) and 10% fetal bovine serum]. The cells were placed into the quiescent state after confluence was reached.
(b) Measurements of PGE2 production
WI-38 cells were seeded in 24-well plates at a density of 1×10^5 cells/well with 0.5 ml of E-MEM including 1% fetal bovine serum and were cultured for 1 day. The mediums in 24-well plates in which WI-38 cells were cultured were removed by aspiration and Hanks-bovine serum albumin buffer [Hanks-BSA Buffer: Hanks' balanced salts (4.9 g), sodium bicarbonate (0.1 g) and bovine serum albumin (protease free) (0.5 g)] was added thereto. […] Supernatant was collected, and PGE2 level included therein was measured by PGE2 EIA Kit (Cayman Chemical Co.).

| SMILES | IC50 (Bradykinin receptor) [nM] | fold induction at 1 µM (WI-38 PGE2 production) |
| --- | --- | --- |
| CNC(=O)c1ccc(C=CC(=O)NCC(=O)N(C)c2ccc(Cl)c(COc3cccc4c(OCc5ccccn5)cc(C)nc34)c2Cl)cc1 [Example 1-(2), 8-[2,6-dichloro-3-[N-[4-(methylcarbamoyl)cinnamoylglycyl]-N-methylamino]benzyloxy]-2-methyl-4-(2-pyridylmethoxy)quinoline] | 0.99 | 7.95 |
| COc1nc2c(OCc3c(Cl)ccc(N(C)C(=O)CNC(=O)/C=C/c4ccc(NC(C)=O)nc4)c3Cl)cccc2n1Cc1ccccn1 [Example 9, 4-[3-[N-[(E)-3-(6-acetamidopyridin-3-yl)acryloylglycyl]-N-methylamino]-2,6-dichlorobenzyloxy]-2-methoxy-1-(2-pyridylmethyl)-1H-benzimidazole] | 6.3 | 10.8 |
